Results published in patent publication US20210254173A1, “PREDICTIVE 7-GENE ASSAY AND PROGNOSTIC PROTEIN BIOMARKER FOR NON-SMALL CELL LUNG CANCER” (West Virginia University, priority 2018, published 2021).

Columns and labels:
Format in all cases: in vivo, human
SLC39A8 = assay: Chemoresponse prediction: Cox proportional hazard model using SLC39A8 ΔCt values in qRT-PCR assays of NSCLC patients; settings: prediction by high SLC39A8 expression
Experimental: (§1) Patient samples. All NSCLC patients were staged I, II, or IIIA at the time of diagnosis. Tumor tissues were collected in surgical resections and were snap-frozen at −80° C. until used for RNA extraction. Tumor cell content was above 50% for qRT-PCR assays. Those with missing AJCC staging information, missing histology, death within 30 days of resection or from other disease conditions were excluded from further analysis. A total of 122 NSCLC patient samples were obtained from Case Western Reserve University (CWRU) Comprehensive Cancer Center. […] The tissue collection in this study was approved by an Institutional Review Board (IRB) at each institution.
RNA extraction, and quality and concentration assessments. […] The quality and integrity of the RNA, the 28S to 18S ratio, and a visual image of the 28S and 18S bands were evaluated on the 2100 Bioanalyzer (Agilent Technologies, CA). […] The RNA concentration of each sample was assessed using a Nanodrop-1000 Spectrophotometer (NanoDrop Tech, Germany). […]
(§2) Real-time quantitative RT-PCR low-density arrays. […]
(§3) Three hundred thirty seven (337) tumor samples were analyzed with good RNA quality using TaqMan microfluidic low-density array (LDA) plates on an ABI 7900HT Fast RT-PCR instrument (Applied Biosystems).

ABCC4 = assay: Chemoresponse prediction: Cox proportional hazard model using ABCC4 ΔCt values in qRT-PCR assays of NSCLC patients
Experimental: as §1
RNA extraction, and quality and concentration assessments. Total RNA was extracted from snap-frozen tumor tissues using a RNeasy mini kit according the manufacturer's protocol (Qiagen, USA), followed by elution in 30 μl of RNase-free water and storage at −80° C. The quality and integrity of the RNA, the 28S to 18S ratio, and a visual image of the 28S and 18S bands were evaluated on the 2100 Bioanalyzer (Agilent Technologies, CA). […] The RNA concentration of each sample was assessed using a Nanodrop-1000 Spectrophotometer (NanoDrop Tech, Germany).
Generation of complementary DNA (cDNA). The reverse transcriptase polymerase chain reaction was used to convert the high-quality single-stranded RNA samples to double-stranded cDNA, using an Applied Biosystems GeneAmp® PCR 9700 machine (Foster City, Calif.). For standardization across all samples, one microgram of RNA was used to generate cDNA.
Real-time quantitative RT-PCR low-density arrays. Real-time qRT-PCR assays of independent patient cohorts of NSCLC tumor samples were used to further select biomarkers to form a multi-gene assay from prognostic genes identified from microarray data in our previous studies.
as §3

FUT7 = assay: Chemoresponse prediction: Cox proportional hazard model using FUT7 ΔCt values in qRT-PCR assays of NSCLC patients
Experimental: Patient samples. All NSCLC patients were staged I, II, or IIIA at the time of diagnosis. Tumor tissues were collected in surgical resections and were snap-frozen at −80° C. until used for RNA extraction. Tumor cell content was above 50% for qRT-PCR assays. Those with missing AJCC staging information, missing histology, death within 30 days of resection or from other disease conditions were excluded from further analysis. A total of 122 NSCLC patient samples were obtained from Case Western Reserve University (CWRU) Comprehensive Cancer Center. Total RNA of good quality was extracted from 89 tumor specimens. […]
RNA extraction, and quality and concentration assessments. […] The quality and integrity of the RNA, the 28S to 18S ratio, and a visual image of the 28S and 18S bands were evaluated on the 2100 Bioanalyzer (Agilent Technologies, CA). RNA assessed as having good quality from […] tumor samples was included for further analysis. The RNA concentration of each sample was assessed using a Nanodrop-1000 Spectrophotometer (NanoDrop Tech, Germany). […]
as §2
Three hundred thirty seven (337) tumor samples were analyzed with good RNA quality using TaqMan microfluidic low-density array (LDA) plates on an ABI 7900HT Fast RT-PCR instrument (Applied Biosystems). Total RNA samples were analyzed on an Agilent 2100 Bioanalyzer RNA 6000 Nano LabChip. […]

[1] = ABCC4 ΔCt as covariate, Cox model, NSCLC patients treated with the named agent(s)

CC(=O)O[C@H]1C(=O)[C@@]2(C)[C@H]([C@H](OC(=O)c3ccccc3)[C@]3(O)C[C@H](OC(=O)[C@H](O)[C@@H](NC(=O)c4ccccc4)c4ccccc4)C(C)=C1C3(C)C)[C@]1(OC(C)=O)CO[C@@H]1C[C@@H]2O [Taxol, paclitaxel]
Chemosensitive/resistant (SLC39A8): Chemoresistant
Hazard ratio of death from disease with 95% CI (ABCC4; [1]): 0.403
Hazard ratio of recurrence with 95% CI (ABCC4; [1]): 0.48
Chemosensitive/resistant (ABCC4; prediction by high ABCC4 expression, patients treated with the named agent(s)): Chemoresistant

N.N.O=C([O-])C1(C(=O)[O-])CCC1.[Pt+2] [Carboplatin, carboplatin]
Hazard ratio of death from disease with 95% CI (FUT7; FUT7 ΔCt as covariate, Cox model, NSCLC patients treated with the named agent): 1.605
Chemosensitive/resistant (FUT7; prediction by high FUT7 expression): Chemosensitive

Nc1nc2[nH]cc(CCc3ccc(C(=O)N[C@@H](CCC(=O)O)C(=O)O)cc3)c2c(=O)[nH]1 [Alimta, pemetrexed]
Chemosensitive/resistant (SLC39A8): Chemoresistant
